Where two headings read alike, the source gives them in different places.
Columns and labels:
[1] = target: T1, histamine H2-receptors (isolated guinea pig right atria) (Cavia porcellus, UniProt P47747); assay: Histamine H2-receptor antagonism, isolated guinea pig right atria assay; set-up: estimated dissociation constant KB: unit not given here; settings: for effect on histamine or dimaprit dose-response curves: at the concentrations utilized, 30-minute incubation
T1 construct: The spontaneously beating right atrium was dissected free from other tissues; from tissue; host or cells: isolated spontaneously beating right atrium of male Hartley guinea pigs
Protocol: Subsequent investigations by Hughes and Coret, Proc. Soc. […] Black et al., Agents and Actions, 3, 133 (1973) and Brimblecombe et al., Fed. […] The present comparative studies were carried out using a modification of the procedure reported by Reinhardt et al., Agents and Actions, 4, 217 (1974).
The spontaneously beating right atrium was dissected free from other tissues and a silk thread (4-0) attached to each end.

[2] = system: gastric acid secretion (Heidenhain pouch dog); assay: Gastric antisecretory activity in the histamine-stimulated Heidenhain pouch dog; assay type: in vivo; settings: for ED50: Canis lupus familiaris, 0.5 h, read-out: ED50 i.v.
Protocol: Prior to surgery, hematology and blood chemistry profiles are obtained and an assessment made as to the general health of selected female dogs. Dogs are vaccinated with Tissue Vax 5 (DHLP-Pitman-Moore) and housed in general animal quarters for four weeks' observation so incipient diseases may become apparent. Dogs are fasted with water ad libitum 24 hours prior to surgery.
Anesthesia is induced with Sodium Pentothal (Abbott) 25-30 mg/kg iv. Subsequent anesthesia is maintained with methoxyflurane (Pitman-Moore). A mid-line linea alba incision from xiphoid to umbilicus provides good exposure and ease of closure. The stomach is pulled up into the operative field, the greater curvature stretched out at multiple points and clamps placed along the selected line of incision. The pouch is made from the corpus of the stomach so that true parietal cell juice is obtained. About 30% of the corpus volume is resected. The cannula is made of light-weight,biologically-inert material such as nylon, Delrin or surgical stainless steel with dimensions and attachments after DeVito and Harkins [J. Appl. Physiol., 14, 138 (1959)]. Post-operatively, dogs are medicated with antibiotics and an analgesic. They are allowed 2-3 months for recovery. Experiments are carried out in the following way: Dogs are fasted overnight (18 hours) with water ad libitum prior to each experiment. The dogs are placed in a sling and a saphenous vein cannulated for drug administration. Histamine as the base (100 μg/kg/hr) and chlorpheniramine maleate (0.25 mg/kg/hr) are infused continuously (in a volume of 6 ml/hr) with a Harvard infusion pump.
Ninety minutes' infusion are allowed for the dogs to reach a steady state of acid output. At this time the drug or normal saline (control) is administered concomitantly with the secretagogue in a volume of 0.5 ml/kg over a 30 second period. Infusion of the secretagogue is continued and 15 minute samples of the gastic juice are taken for 4.5 hours. Each sample is measured to the nearest 0.5 ml and tritratable acidity is determined by titrating a 1 ml sample to pH 7.0 with a 0.2N NaOH, employing a fully automatic titration system (Metrohm). Titratable acid output is calculated in microequivalents by multiplying the volume is milliliters by the acid concentration in microequivalents per milliliter.
Results at peak activity after bolus intravenous administration of test compound are expressed as percent inhibition relative to control readings. Dose-response curves were constructed utilizing at least three dose levels with a minimum of three dogs at each dose level. […]

[3] = system: histamine H2-receptors; settings: Black et al., Nature, 236, 385 (1972); cited from earlier work
[4] = system: peptic ulcer disease; settings: Gray et al., Lancet, 1, 8001 (1977); cited from earlier work

T1 sequence (P47747 whole entry): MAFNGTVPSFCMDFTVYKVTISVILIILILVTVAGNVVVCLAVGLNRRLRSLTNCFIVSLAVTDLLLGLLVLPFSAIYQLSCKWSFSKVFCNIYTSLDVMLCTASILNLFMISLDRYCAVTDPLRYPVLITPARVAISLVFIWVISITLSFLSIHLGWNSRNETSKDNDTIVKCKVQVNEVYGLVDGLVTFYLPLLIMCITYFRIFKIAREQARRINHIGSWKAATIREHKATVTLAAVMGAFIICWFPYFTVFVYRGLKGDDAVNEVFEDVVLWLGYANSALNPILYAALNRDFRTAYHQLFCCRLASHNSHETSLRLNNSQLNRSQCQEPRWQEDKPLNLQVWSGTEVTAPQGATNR

Compound	effect on histamine or dimaprit dose-response curves [1]	estimated dissociation constant KB ([1]; estimated by method of Furchgott, KB = concentration of antagonist/dose ratio-1, ± S.E., N = 5 preparations)	Potency Ratio (cimetidine = 1.0) ([1]; from KB, isolated guinea pig right atria, cimetidine = 1.0)	ED50 ([2]; intravenous dose giving 50% inhibition at time of peak activity, i.e. 30 minutes post dose, parentheses: 95% confidence limits, histamine 100 μg/kg/hr) [µmol/kg]	Potency Ratio (cimetidine = 1.0) ([2]; i.v., Heidenhain pouch dog, cimetidine = 1.0, Probit analysis)	duration of action of antisecretory activity ([2]; intravenous dog model, relative to cimetidine)	type of antagonism at histamine H2-receptors [3]	clinical effectiveness in peptic ulcer disease [4]	ED50 ([2]; iv) [µmol/kg]
N=C(N)Nc1nc(CSCCNc2nsnc2N)cs1 [Example 1, 3-Amino-4-{2-[(2-guanidinothiazol-4-yl)methylthio]ethylamino}-1,2,5-thiadiazole]	Parallel shifts in dose-response curves were obtained without depressing the maximal response	0.0094 ± 0.0018	44	0.082	32	prolonged duration of action relative to cimetidine			
CNC(=S)NCCCCc1cnc[nH]1 [burimamide]							competitive antogonist		
CN/C(=N/CCSCc1nc[nH]c1C)NC#N [cimetidine, reference compound]	Parallel shifts in dose-response curves were obtained without depressing the maximal response							effective therapeutic agent in the treatment of peptic ulcer disease	2.6
